From patent US9579325B2, “Modulators of TNF-α signaling” (Genzyme Corporation, priority 2000, dated 2017)

Columns and labels:
[1] = tested on: Vascular Cell Adhesion Molecule (VCAM) expression in primary human umbilical vein endothelial cells; assay: VCAM High Throughput Screen (TNF-α driven VCAM expression); format: cell-based; conditions: HUVEC, TNF 1.0 ng/ml
Text: (§1) Description of Table V: The results shown in Table V were obtained using the TNF-α assays performed as described in the protocols entitled “Method for TNF High Throughput Screen” and “Method for VCAM High Throughput Screen”, which are detailed below. These assays measure a cellular response to TNF-α stimulation, and the data published in the table are expressed as percentage inhibitions. Percentage inhibition is computed on a scale of 0 to 100% where 0 percent inhibition means the compound has no effect in the assay (the response is indistinguishable from TNF-α treatment alone), and 100% inhibition means that when the compound is present at the stated concentration, the response in the assay is the same as if TNF-α were not added. These two assays measure two different outcomes of TNF-α treatment, cell death and Vascular Cell Adhesion Molecule (VCAM) expression, and capture two of TNF-α's many biological effects. TNF-α induced apoptosis is a mechanism by which TNF-α production during immune/inflammatory responses can lead to direct cellular and tissue damage. TNF-α VCAM expression in endothelial cells is a response that allows leukocytes to leave the blood and enter a site of immune/inflammatory response. Both of these activities could lead to pathology in immune/inflammatory diseases. In the first column of the table, the percentage inhibition of the TNF-α driven apoptosis assay when the compounds are tested at 1 μM concentration is presented. The second column in the table lists the IC50 for the compound, a standard measure using a dilution series in the assay, and fitting a sigmoidal curve to the resulting dose-response curve. The IC50 is the concentration (derived analytically from the sigmoidal function) at which the compound would inhibit 50% of the response in the assay. The third and fourth column list the corresponding analysis for the TNF-α driven VCAM assay. In Table VI, data corresponding to the data in column 1 of Table V is shown, with human cells replacing the mouse cells used in the high throughput screen. […] As a consequence, the compounds will have use in treating more than one TNF-α mediated condition, and may be selected according to the manner in which the condition manifests. This corresponds to the use of these compounds in the treatment of human disease.
• 1. Plate 4×10^4 L929 cells in 100 μl of complete EMEM in Costar 96 well plates in PM. • 2. The next day, pretreat with compound, inhibitor and control vehicle for 2 hours. • 3. After 2 hours pretreatment, add 10 μl 5 ng/ml human TNF-α and actinomycin D (40 μg/ml final concentration). • 4. Incubate overnight. • 5. In AM, remove supernatant. • 6. Wash on a plate washer (0.9% NaCl). • 7. […] Shake plates on orbital shaker and read at 595 nm on plate reader. […]

[2] = tested on: Normal human dermal fibroblasts; assay: TNF-α induced apoptosis in primary human fibroblasts; format: cell-based; conditions: for OD 595 nm: 2 ng/ml TNF-α 24 hours, crystal violet
Text: as §1
Normal human dermal fibroblasts were seeded into 96-well plates at 3×10^4 cells/well. Cells were pretreated for 2 hours with […] Actinomycin D and either Compound 44 or DMSO as a vehicle control. Cells were then exposed to 2 ng/ml TNF-α for 24 hours and stained with crystal violet/ethanol. Crystal violet was solubilized with methanol and absorbance at 595 nm was read on a microtiter plate reader.

C57/BL mouse = assay: Sepsis model: murine LPS-d-galactosamine model; format: in vivo; conditions: 200 mg/kg intraperitoneally one hour before induction; prevention of mortality over three days
Method: Sepsis was induced in the C57/BL mouse by the intravenous injection of 20 ng of lipopolysaccharide/animal plus 20 mgs d-galactosamine/animal. Inhibition was measured as the prevention of mortality over a three day period. Compounds were administered intraperitoneally in 10% cremophore/10% ethanol/80% normal saline one hour before induction.

male rats = assay: Inflammatory Bowel Disease model: rat DNBS distal colitis; format: in vivo; conditions: 100 mg/kg orally, 7 doses
Method: Groups of three male rats weighing 150+/−10 g and fasted for 24 hours were used. Distal colitis was induced by intracolonic instillation of 0.5 ml/rat DNBS (2,4-dinitrobenzene sulfonic acid, 60 mg/ml in ethanol 30%) after which air (2 ml) was gently injected through the cannula to ensure that the solution remains in the colon. A test compound was administered orally 24 and 2 hours before DNBS-instillation and then daily for 5 days in a total of 7 doses. The animals were sacrificed 24 hours after the final dose of test compound administration and each colon was removed and weighed.

SJL mouse strain = assay: Experimental Allergic Encephalitis (murine model of multiple sclerosis); format: in vivo
Method: SJL mouse strain were immunized subcutaneously with proteolipid peptide amino acid residues 139-151 in Complete Freund's Adjuvant. Pertussis toxin was injected intravenously on day 1 and 3 post-induction. Weight loss occurred at day 7 post-immunization with paralysis ensuing between days 9 and 14 post-immunization.

Q: `N#Cc1cccc(C(C(=O)NCC(c2ccccc2)c2ccccc2)N(CCc2c[nH]cn2)C(=O)c2ccccc2C(=O)c2ccccc2)c1` (stereo not drawn) [Compound 44] was tested. Which IC50 [1] did it give?
A: 24.4 µM

Q: And the “% Rescue” value ([2]; 2 μM compound)?
A: 18.4%

Q: And the “OD 595 nm” value ([2]; 2 μM compound)?
A: 0.109

Q: And the “% Rescue” value ([2]; 4 μM compound)?
A: 57.1%

Q: And the “OD 595 nm” value ([2]; 4 μM compound)?
A: 0.147

Q: What about the “% Rescue” value ([2]; 8 μM compound) of the same compound?
A: 109.2%

Q: What about the “OD 595 nm” value ([2]; 8 μM compound) of the same compound?
A: 0.198

Q: What about the “Sepsis: Murine LPS-d-galactosamine model % inhibition” value (C57/BL mouse) of the same compound?
A: 33 +/− 1 @ 200%

Q: What about the “Inflammatory Bowel Disease: Rat DNBS model % inhibition of colonic weight gain” value (male rats) of the same compound?
A: 44 +/− 8 @ 100 mg/kg %

Q: What about the “% inhibition of disease” value (SJL mouse strain; Induction regimen, 15 mgs/kg/day/i.p. from day 1-21, P = 0.06) of the same compound?
A: 44.0%

Q: What about the “activity disease severity score (ADSS) at last day of dosing, treated (vs. control)” value (from here on “activity disease severity score … (vs. control)”) (SJL mouse strain; Induction regimen, 15 mgs/kg/day/i.p. from day 1-21, control 3.35) of the same compound?
A: 1.9/3.35

Q: And the “% Survival of treated (vs. % survival of controls)” value (from here on “% Survival of treated”) (SJL mouse strain; Induction regimen, 15 mgs/kg/day/i.p. from day 1-21, controls 50)?
A: 75 vs. 50%

Q: And the “activity disease severity score … (vs. control)” value (SJL mouse strain; Induction regimen, 75 mgs/kg/day/i.p. from day 1-21, control 3.35)?
A: 0.8/3.35

Q: What about the “% Survival of treated” value (SJL mouse strain; Induction regimen, 75 mgs/kg/day/i.p. from day 1-21, controls 50) of the same compound?
A: 100 vs. 50%

Q: And the “% inhibition of disease” value (SJL mouse strain; Induction regimen, 75 mgs/kg/day/i.p. from day 1-21, p = 0.001)?
A: 75.7%

Q: What about the “activity disease severity score … (vs. control)” value (SJL mouse strain; Oral therapeutic regimen, 75 mgs/kg/day/i.p. from day 7-28, control 4.4) of the same compound?
A: 2.2/4.4

Q: What about the “% Survival of treated” value (SJL mouse strain; Oral therapeutic regimen, 75 mgs/kg/day/i.p. from day 7-28, controls 20) of the same compound?
A: 89 vs. 20%

Q: What about the “% inhibition of disease” value (SJL mouse strain; Oral therapeutic regimen, 75 mgs/kg/day/i.p. from day 7-28, p = 0.002) of the same compound?
A: 50%

Q: And the “activity disease severity score … (vs. control)” value (SJL mouse strain; Therapeutic regimen, 15 mgs/kg/day/i.p. from day 7-21, control 4.6)?
A: 2.6/4.6

Q: What about the “% Survival of treated” value (SJL mouse strain; Therapeutic regimen, 15 mgs/kg/day/i.p. from day 7-21, controls 11) of the same compound?
A: 70 vs. 11%

Q: And the “% inhibition of disease” value (SJL mouse strain; Therapeutic regimen, 15 mgs/kg/day/i.p. from day 7-21, p = 0.08)?
A: 43.5%

Q: What about the “activity disease severity score … (vs. control)” value (SJL mouse strain; Therapeutic regimen, 75 mgs/kg/day/i.p. from day 7-21, control 4.6) of the same compound?
A: 1.1/4.6

Q: What about the “% Survival of treated” value (SJL mouse strain; Therapeutic regimen, 75 mgs/kg/day/i.p. from day 7-21, controls 11) of the same compound?
A: 100 vs. 11%

Q: What about the “% inhibition of disease” value (SJL mouse strain; Therapeutic regimen, 75 mgs/kg/day/i.p. from day 7-21, p = 0.001) of the same compound?
A: 76.1%
